From patent US7273845B2, “Polymeric prodrugs of vancomycin” (priority 2002, dated 2007)

Experiments:
[1] = test system: Staphylococcus aureus (Smith); test: LD90-100 examination, compound given after S. aureus (Smith) challenge, survival; type: in vivo, ICR Swiss mice; details: 100 mg/kg vancomycin equivalents in two equal split doses 1 and 2.5 h following LD90-100 S. aureus (Smith) inoculation; survival after 1 week
Protocol: Studies examining the in vivo anti-infective potential of PEG-vancomycin conjugates in ICR Swiss mice were performed. […] As controls, S. aureus (Smith) challenged mice were administered either saline or 100 mg/kg vancomycingiven in equal split doses. Ten mice were used per compound tested.

[2] = test system: S. aureus (Smith); test: Sustained anti-infective protection, compound given before LD90-100 S. aureus (Smith) challenge, survival; type: in vivo, ICR Swiss mice
Protocol: A second study was also performed to examine the sustained anti-infective protection of PEG-vancomycin conjugate 22. ICR Swiss mice were administered with either 100 mg/kg vancomycin equivalents of 22, 100 mg/kg vancomycin, or saline in two equally split doses 1½ hours apart. Ten mice per treatment group were used.

[3] = test system: E.coli (25922); test: Minimum Inhibitory Concentration (MIC), E.coli (25922); type: cell-based; details: vancomycin equivalents
[4] = test system: E. faecalis (29212); test: Minimum Inhibitory Concentration (MIC), E. faecalis (29212); type: cell-based; details: vancomycin equivalents
[5] = test system: S. aureus (29214); test: Minimum Inhibitory Concentration (MIC), S. aureus (29214); type: cell-based; details: vancomycin equivalents
[6] = test system: S. aureus (6538P); test: Minimum Inhibitory Concentration (MIC), S. aureus (6538P); type: cell-based; details: vancomycin equivalents
[7] = Circulatory pharmacokinetics after single intravenous dose in rats; details: for Vss: 50 mg/kg
Protocol: PEG-vancomycin conjugates containing a 50 mg/kg vancomycin equivalent dose and 50 mg/kg native vancomycin (1) were injected as a single intravenous dose into the tail vein of conscious rats at a rate of 0.5 ml/min [˜2.5 min]. […] A 250 μL bled was done on rats sedated with 30% O2/70% CO2 via the retro-orbital plexus into EDTA containing vials. Blood was immediately processed for plasma and frozen on dry ice. Plasma samples were stored at −80° C. until analyzed. The plasma samples were analyzed by a fluorescence polarization immunoassay using an Abbott Laboratories TDx analyzer within two hours of thawing. A single compartment model using WinNonlin™ software was used to determine the-plasma pharmacokinetic parameters.

[8] = 50 mg/kg vancomycin equivalents i.v.
[9] = intravenous bolus 50 mg/kg vancomycin equivalents, plasma

vancomycin [Compound 1]
Post Challenge % Survival (mice) [1]: 100% | anti-microbial protection against later S. aureus challenge (in words) ([2]; 100 mg/kg vancomycin equivalents given before challenge, ICR Swiss mice): no protection | Pre-Challenge % Survival (mice) ([2]; 100 mg/kg vancomycin equivalents in two split doses 1½ h apart, given prior to LD90-100 S. aureus (Smith) challenge, survival after 1 week): 0% | MIC E.coli (25922) [3]: >100 µg/mL | MIC E. faecalis (29212) [4]: 6.2 µg/mL | MIC S. aureus (29214) [5]: 3.1 µg/mL | MIC S. aureus (6538P) [6]: 1.6 µg/mL | Cmax [7, 8]: 162 µg/mL | area under the curve (AUC) [7, 8]: 78800 ng·h/mL | circulatory half-life (t1/2) [7, 8]: 20.4 min | clearance (CL) [7, 8]: 10.7 mL/min/kg | AUC [7, 9]: 78800 ± 10800 ng·h/mL | CL [7, 9]: 10.7 ± 1.4 mL/min/kg | Cmax [7, 9]: 162.0 ± 9.0 µg/mL | Plasma Half-life [7, 9]: 20.4 ± 2.4 min | Vss [7, 9]: 0.3093 ± 0.0172 L/kg | Vss ([7]; intravenous bolus 50 mg/kg vancomycin equivalents, plasma, listed as Vancomycin): 0.309 L/kg
